Each molecule was assayed against GluA1o-γ8 (GRIA1o-CACNG8 fusion construct) (Homo sapiens (Human), UniProt P42261+Q8WXS5) (assay: Calcium flux assay (FLIPR), inhibition of TARP γ8 dependent AMPA receptor activity). Settings: GluA1o-γ8 (GRIA1o-CACNG8 fusion) in HEK293 cells, calcium flux after 15 μM glutamate.
Type: cell-based
Procedure, shortened: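 Glutamate (15 μM) was added to a stable HEK293 line carrying the GluA1o–γ8 fusion, which had been preincubated with compound and calcium dye in HEPES buffer, pH 7.4. Normalized FLIPR fluorescence (no compound vs 10 μM CP465022) was fitted with four parameters; pIC50 is the midpoint's negative log.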

Chain of GluA1o-γ8 (GRIA1o-CACNG8 fusion construct) (P42261 other isoform, or with tags, fused parts or gaps): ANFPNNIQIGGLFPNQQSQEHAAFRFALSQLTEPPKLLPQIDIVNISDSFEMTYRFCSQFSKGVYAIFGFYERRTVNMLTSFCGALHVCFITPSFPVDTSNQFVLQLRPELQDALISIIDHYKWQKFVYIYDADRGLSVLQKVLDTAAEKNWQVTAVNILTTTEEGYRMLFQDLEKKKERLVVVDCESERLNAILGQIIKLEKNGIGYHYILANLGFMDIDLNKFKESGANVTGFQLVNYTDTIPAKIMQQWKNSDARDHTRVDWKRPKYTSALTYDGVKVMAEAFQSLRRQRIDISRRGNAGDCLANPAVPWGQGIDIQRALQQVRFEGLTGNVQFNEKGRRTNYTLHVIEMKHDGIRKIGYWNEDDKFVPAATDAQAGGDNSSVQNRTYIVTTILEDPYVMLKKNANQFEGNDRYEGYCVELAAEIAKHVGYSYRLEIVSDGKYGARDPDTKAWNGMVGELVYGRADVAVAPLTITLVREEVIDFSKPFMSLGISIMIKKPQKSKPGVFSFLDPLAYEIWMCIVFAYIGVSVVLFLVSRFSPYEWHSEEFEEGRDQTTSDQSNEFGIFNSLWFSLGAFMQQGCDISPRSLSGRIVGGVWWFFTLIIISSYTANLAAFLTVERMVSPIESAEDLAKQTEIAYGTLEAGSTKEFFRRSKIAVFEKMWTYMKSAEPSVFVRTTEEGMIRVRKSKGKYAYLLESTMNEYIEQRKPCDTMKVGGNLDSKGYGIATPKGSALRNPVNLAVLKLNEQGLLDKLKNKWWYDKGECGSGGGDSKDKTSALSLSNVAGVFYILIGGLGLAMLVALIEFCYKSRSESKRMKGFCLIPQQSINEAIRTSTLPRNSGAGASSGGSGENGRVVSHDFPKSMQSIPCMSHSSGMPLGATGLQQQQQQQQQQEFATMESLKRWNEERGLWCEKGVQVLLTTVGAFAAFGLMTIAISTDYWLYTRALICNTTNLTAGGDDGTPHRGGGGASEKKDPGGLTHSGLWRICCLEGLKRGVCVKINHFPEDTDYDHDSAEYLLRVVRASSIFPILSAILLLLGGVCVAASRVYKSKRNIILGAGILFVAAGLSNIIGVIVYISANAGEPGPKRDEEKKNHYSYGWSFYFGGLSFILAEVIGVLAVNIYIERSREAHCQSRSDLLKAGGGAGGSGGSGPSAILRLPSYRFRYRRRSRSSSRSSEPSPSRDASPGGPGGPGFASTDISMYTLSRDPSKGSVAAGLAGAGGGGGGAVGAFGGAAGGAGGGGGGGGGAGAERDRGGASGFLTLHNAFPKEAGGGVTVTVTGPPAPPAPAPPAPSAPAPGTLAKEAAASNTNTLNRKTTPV

Row | Structure (SMILES) | IC50
1 | Cc1cc(-n2cc(C(F)F)c3ccc(C(F)(F)F)nc32)cc2cn[nH]c12 [Example 340, 3-(Difluoromethyl)-1-(7-methyl-1H-indazol-5-yl)-6-(trifluoromethyl)pyrrolo[2,3-b]pyridine] | 12.6 nM
2 | Cc1ccc2ccn(-c3cc(C)c4[nH]ncc4c3)c2n1 [Example 341, 6-Methyl-1-(7-methyl-1H-indazol-5-yl)pyrrolo[2,3-b]pyridine] | 15.8 nM
3 | Cc1ccc2cc(C(C)C)n(-c3ccc4c(c3)CC(=O)N4)c2n1 [Example 342, 5-(2-Isopropyl-6-methyl-pyrrolo 2,3-bpyridin-1-yl)indolin-2-one] | 0.251 nM
4 | COc1ccc2cc(-c3ccc(F)cc3)n(-c3ccc4[nH]ccc4c3)c2n1 [Example 343, 2-(4-Fluorophenyl)-1-(1H-indol-5-yl)-6-methoxy-pyrrolo[2,3-b]pyridine] | 631 nM
5 | Fc1ccc(-c2cc3cccnc3n2-c2ccc3c(c2)CCN3)cc1 [Example 344, 2-(4-Fluorophenyl)-1-indolin-5-yl-pyrrolo[2,3-b]pyridine] | 501 nM
6 | Fc1ccc(-c2cc3cccnc3n2-c2ccc3[nH]ccc3c2)cc1 [Example 345, 2-(4-Fluorophenyl)-1-(1H-indol-5-yl)pyrrolo[2,3-b]pyridine] | 79.4 nM
7 | O=C1Cc2cc(-n3c(-c4ccc(F)cc4)c(Br)c4cccnc43)ccc2N1 [Example 346, 5-[3-Bromo-2-(4-fluorophenyl)pyrrolo[2,3-b]pyridin-1-yl]indolin-2-one] | 3.98 nM
8 | O=C1Cc2cc(-n3c(-c4ccc(F)cc4)cc4cccnc43)ccc2N1 [Example 347, 5-[2-(4-Fluorophenyl)pyrrolo[2,3-b]pyridin-1-yl]indolin-2-one] | 2.51 nM
9 | Fc1ccc(-c2cc3ccc(F)nc3n2-c2ccc3[nH]ccc3c2)cc1 [Example 348, 6-Fluoro-2-(4-fluorophenyl)-1-(1H-indol-5-yl)pyrrolo[2,3-b]pyridine] | 100 nM
10 | O=C1Cc2cc(-n3c(-c4ccc(F)cc4)c(Br)c4ccc(F)nc43)ccc2N1 [Example 349, 5-[3-Bromo-6-fluoro-2-(4-fluorophenyl)pyrrolo[2,3-b]pyridin-1-yl]indolin-2-one] | 3.98 nM
11 | O=C1Cc2cc(-n3c(-c4ccc(F)cc4)cc4ccc(F)nc43)ccc2N1 [Example 350, 5-[6-Fluoro-2-(4-fluorophenyl)pyrrolo[2,3-b]pyridin-1-yl]indolin-2-one] | 0.794 nM
12 | Cc1cc2ccc(C(F)(F)F)nc2n1-c1ccc2[nH]ccc2c1 [Example 351, 1-(1H-Indol-5-yl)-2-methyl-6-(trifluoromethyl)pyrrolo[2,3-b]pyridine] | 25.1 nM
13 | Cc1cc2ccc(C(F)(F)F)nc2n1-c1ccc2c(c1)CC(=O)N2 [Example 352, 5-[2-Methyl-6-(trifluoromethyl)pyrrolo[2,3-b]pyridin-1-yl]indolin-2-one] | 0.501 nM
14 | Cc1cc(-n2c(C)cc3cccnc32)cc2c1NC(=O)C2 [Example 353, 7-Methyl-5-(2-methyl-1H-pyrrolo[2,3-b]pyridin-1-yl)indolin-2-one] | 12.6 nM
15 | Cc1cc2ccc(C(F)(F)F)nc2n1-c1ccc2[nH]ncc2c1 [Example 354, 5-(2-Methyl-6-(trifluoromethyl)-1H-pyrrolo[2,3-b]pyridin-1-yl)-1H-indazole] | 0.501 nM
16 | Cc1cc2ccc(C(F)(F)F)nc2n1-c1ccc2[nH]c(=O)sc2c1 [Example 355, 6-(2-Methyl-6-(trifluoromethyl)-1H-pyrrolo[2,3-b]pyridin-1-yl)benzo[d]thiazol-2(3H)-one] | 0.02 nM
17 | CC(C)c1cc2cccnc2n1-c1cc(Cl)c2[nH]ncc2c1 [Example 356, 1-(7-Chloro-1H-indazol-5-yl)-2-isopropyl-pyrrolo[2,3-b]pyridine] | 0.02 nM
18 | CC(C)c1cc2cccnc2n1-c1cc(Cl)c2c(c1)CC(=O)N2 [Example 357, 7-Chloro-5-(2-isopropylpyrrolo[2,3-b]pyridin-1-yl)indolin-2-one] | 0.0316 nM
19 | Cc1cc(-n2c(C(C)C)cc3cccnc32)cc2c1NC(=O)C2 [Example 358, 5-(2-Isopropylpyrrolo[2,3-b]pyridin-1-yl)-7-methyl-indolin-2-one] | 0.2 nM
20 | Cc1cc(-n2c(C3CC3)cc3cccnc32)cc2c1NC(=O)C2 [Example 359, 5-(2-Cyclopropylpyrrolo[2,3-b]pyridin-1-yl)-7-methyl-indolin-2-one] | 10 nM
21 | Cc1ccc2cc(C(C)C)n(-c3cc(C)c4c(c3)CC(=O)N4)c2n1 [Example 360, 5-(2-Isopropyl-6-methyl-pyrrolo[2,3-b]pyridin-1-yl)-7-methyl-indolin-2-one] | 0.0631 nM
22 | CC(C)c1cc2cccnc2n1-c1cc(F)c2c(c1)CC(=O)N2 [Example 361, 7-Fluoro-5-(2-isopropylpyrrolo[2,3-b]pyridin-1-yl)indolin-2-one] | 7.94 nM

Row | Structure (SMILES) | IC50
23 | Cc1ccc2cc(C(C)C)n(-c3cc(F)c4c(c3)CC(=O)N4)c2n1 [Example 362, 7-Fluoro-5-(2-isopropyl-6-methyl-pyrrolo[2,3-b]pyridin-1-yl)indolin-2-one] | 0.0398 nM
24 | Cc1cc2cccnc2n1-c1cc(F)c2c(c1)CC(=O)N2 [Example 363, 7-Fluoro-5-(2-methylpyrrolo[2,3-b]pyridin-1-yl)indolin-2-one] | 200 nM
25 | Cc1cc2ccc(C(F)(F)F)nc2n1-c1cc(F)c2c(c1)CC(=O)N2 [Example 364, 7-Fluoro-5-[2-methyl-6-(trifluoromethyl)pyrrolo[2,3-b]pyridin-1-yl]indolin-2-one] | 3160 nM
26 | COCc1cc2ccc(C(F)(F)F)nc2n1-c1cc(F)c2c(c1)CC(=O)N2 [Example 366, 7-Fluoro-5-[2-(methoxymethyl)-6-(trifluoromethyl)pyrrolo[2,3-b]pyridin-1-yl]indolin-2-one] | 0.631 nM
27 | Cc1cc(-n2c(C(C)C)cc3ccc(C(F)(F)F)nc32)cc2c1NC(=O)C2 [Example 367, 5-[2-Isopropyl-6-(trifluoromethyl)pyrrolo[2,3-b]pyridin-1-yl]-7-methyl-indolin-2-one] | 0.0251 nM
28 | CC(C)c1cc2ccc(C(F)(F)F)nc2n1-c1cc(F)c2c(c1)CC(=O)N2 [Example 369, 7-Fluoro-5-[2-isopropyl-6-(trifluoromethyl)pyrrolo[2,3-b]pyridin-1-yl]indolin-2-one] | 0.00794 nM
29 | Cc1cc(-n2c(C(C)C)cc3ccc(C(F)(F)F)nc32)cc2cn[nH]c12 [Example 370, 2-Isopropyl-1-(7-methyl-1H-indazol-5-yl)-6-(trifluoromethyl)pyrrolo[2,3-b]pyridine] | 0.00794 nM
30 | Cc1cc(-n2c(CCCF)cc3ccc(C(F)(F)F)nc32)cc2cn[nH]c12 [Example 371, 2-(3-Fluoropropyl)-1-(7-methyl-1H-indazol-5-yl)-6-(trifluoromethyl)pyrrolo[2,3-b]pyridine] | 0.0398 nM
31 | FCCCc1cc2ccc(C(F)(F)F)nc2n1-c1cc(Cl)c2[nH]ncc2c1 [Example 372, 1-(7-Chloro-1H-indazol-5-yl)-2-(3-fluoropropyl)-6-(trifluoromethyl)pyrrolo[2,3-b]pyridine] | 0.0316 nM
32 | Cc1cc(-n2c(C)cc3ccc(C(F)(F)F)nc32)cc2cn[nH]c12 [Example 373, 2-Methyl-1-(7-methyl-1H-indazol-5-yl)-6-(trifluoromethyl)pyrrolo[2,3-b]pyridine] | 0.0501 nM
33 | Cc1cc2ccc(C(F)(F)F)nc2n1-c1cc(Cl)c2[nH]ncc2c1 [Example 374, 1-(7-Chloro-1H-indazol-5-yl)-2-methyl-6-(trifluoromethyl)pyrrolo[2,3-b]pyridine] | 0.0126 nM
34 | Cc1cc(-n2c(C)cc3cccnc32)cc2cn[nH]c12 [Example 375, 2-Methyl-1-(7-methyl-1H-indazol-5-yl)pyrrolo[2,3-b]pyridine] | 10 nM
35 | CC(C)c1cc2ccc(C(F)(F)F)nc2n1-c1cnc2[nH]ncc2c1 [Example 376, 5-[2-Isopropyl-6-(trifluoromethyl)pyrrolo[2,3-b]pyridin-1-yl]-1H-pyrazolo[3,4-b]pyridine] | 0.0501 nM
36 | Cc1cc(-n2ccc3ccc(C(F)(F)F)nc32)cc2cn[nH]c12 [Example 377, 1-(7-Methyl-1H-indazol-5-yl)-6-(trifluoromethyl)pyrrolo[2,3-b]pyridine] | 2 nM
37 | Cc1ccc2ccn(-c3cc(C)c4c(c3)CC(=O)N4)c2n1 [Example 378, 7-Methyl-5-(6-methylpyrrolo[2,3-b]pyridin-1-yl)indolin-2-one] | 100 nM
38 | Cc1ccc2ccn(-c3cc(F)c4c(c3)CC(=O)N4)c2n1 [Example 379, 7-Fluoro-5-(6-methylpyrrolo[2,3-b]pyridin-1-yl)indolin-2-one] | 100 nM
39 | Cc1ccc2cc(C3CC3)n(-c3ccc4c(c3)CC(=O)N4)c2n1 [Example 380, 5-(2-Cyclopropyl-6-methyl-pyrrolo[2,3-b]pyridin-1-yl)indolin-2-one] | 1 nM
40 | Cc1ccc2cc(-c3ccc(F)cc3)n(-c3ccc4[nH]ccc4c3)c2n1 [Example 381, 2-(4-Fluorophenyl)-1-(1H-indol-5-yl)-6-methyl-pyrrolo[2,3-b]pyridine] | 5.01 nM
41 | Cc1ccc2cc(-c3ccc(F)cc3)n(-c3ccc4c(c3)CC(=O)N4)c2n1 [Example 382, 5-[2-(4-Fluorophenyl)-6-methyl-pyrrolo[2,3-b]pyridin-1-yl]indolin-2-one] | 0.398 nM
42 | O=C1Cc2cc(-n3c(-c4ccc(F)cc4)cc4ccc(Cl)nc43)ccc2N1 [Example 383, 5-[6-Chloro-2-(4-fluorophenyl)pyrrolo[2,3-b]pyridin-1-yl]indolin-2-one] | 0.1 nM
43 | COc1ccc2cc(-c3ccc(F)cc3)n(-c3ccc4c(c3)CC(=O)N4)c2n1 [Example 384, 5-[2-(4-Fluorophenyl)-6-methoxy-pyrrolo[2,3-b]pyridin-1-yl]indolin-2-one] | 5.01 nM
44 | Fc1ccc(-c2cc3ccc(Cl)nc3n2-c2ccc3[nH]ccc3c2)cc1 [Example 385, 6-Chloro-2-(4-fluorophenyl)-1-(1H-indol-5-yl)pyrrolo[2,3-b]pyridine] | 15.8 nM

Reference: US11312712B2, “Azabenzimidazoles and their use as AMPA receptor modulators” (Janssen Pharmaceutica NV, priority 2015, dated 2022)
